From the supplement of paper PMC9013687

Experiments:
[1] = system: Danio rerio embryo; test: EC10 Pericard size_Increase; higher = less potent
Protocol: (§1)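 Zebrafish embryos (UFZ-OBI strain) were exposed from 2 hpf for 48 h (2 dpf) or 96 h (4 dpf) at 28 °C; spontaneous tail coiling was scored at 25 hpf. Morphological features from automated image analysis (FishInspector), heart rate and locomotor response were fitted with drc models. Quantal endpoints were dichotomised at 2.5 SD from controls and fitted with a log-logistic model; heart rate, pigmentation and STC were normalised to the replicate control mean. Betamethasone was tested as betamethasone dipropionate, diflorasone as diflorasone diacetate.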

[2] = system: Danio rerio embryo; test: spontaneous tail coiling frequency (coils/min/embryo); higher = more spontaneous movement; settings: 25 hpf
Protocol: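 Spontaneous tail coilings of zebrafish embryos exposed from 2 hpf were recorded at 24-25 hpf in 1-min videos and detected by a KNIME workflow from grey-value variance. Betamethasone was tested as the dipropionate, diflorasone as the diacetate.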

[3] = system: Danio rerio embryo
Protocol: as §1

[4] = system: Danio rerio embryo; settings: exposure time: 4 dpf
Protocol: as §1

[5] = system: Danio rerio embryo; test: EC10 Bladder size_Decrease; higher = less potent; settings: exposure time: 4 dpf
Protocol: as §1

[6] = system: Danio rerio embryo; test: EC20 Otolith-eye distance_Decrease; higher = less potent; settings: exposure time: 4 dpf
Protocol: as §1

[7] = system: Danio rerio embryo; test: EC50 Bladder size_Decrease; settings: exposure time: 4 dpf
Protocol: as §1

[8] = system: Danio rerio embryo; test: EC10 Otolith-eye distance_Decrease; higher = less potent; settings: exposure time: 4 dpf
Protocol: as §1

[9] = system: Danio rerio embryo; test: EC20 Pericard size_Increase; higher = less potent
Protocol: as §1

[10] = system: Danio rerio embryo; test: EC20 Bladder size_Decrease; higher = less potent; settings: exposure time: 4 dpf
Protocol: as §1

[11] = system: Danio rerio embryo; test: EC20 LMR dark; higher = less potent; settings: exposure time: 4 dpf
Protocol: as §1

[12] = system: Danio rerio embryo; test: EC50 Body length_Decrease
Protocol: as §1

[13] = system: Danio rerio embryo; test: EC20 Any effect; higher = less potent
Protocol: as §1

[14] = system: Danio rerio embryo; test: EC50 Eye-jaw distance_Decrease; settings: exposure time: 4 dpf
Protocol: as §1

[15] = system: Danio rerio embryo; test: EC10 Eye-jaw distance_Decrease; higher = less potent; settings: exposure time: 4 dpf
Protocol: as §1

[16] = system: Danio rerio embryo; test: EC10 Head trunk angle_Decrease; higher = less potent; settings: exposure time: 2 dpf
Protocol: as §1

[17] = system: Danio rerio embryo; test: EC10 Curvature_Increase; higher = less potent
Protocol: as §1

[18] = system: Danio rerio embryo; test: EC10 Yolk sac size_Increase; higher = less potent
Protocol: as §1

[19] = system: Danio rerio embryo; test: EC10 Body length_Decrease; higher = less potent
Protocol: as §1

[20] = system: Danio rerio embryo; test: EC20 Eye-jaw distance_Decrease; higher = less potent; settings: exposure time: 4 dpf
Protocol: as §1

[21] = system: Danio rerio embryo; test: EC50 Pericard size_Increase
Protocol: as §1

[22] = system: Danio rerio embryo; test: EC50 Curvature_Increase
Protocol: as §1

[23] = system: Danio rerio embryo; test: EC20 Yolk sac size_Increase; higher = less potent
Protocol: as §1

[24] = system: Danio rerio embryo; test: EC50 Otolith-eye distance_Decrease; settings: exposure time: 4 dpf
Protocol: as §1

[25] = system: Danio rerio embryo; test: EC20 Curvature_Increase; higher = less potent
Protocol: as §1

[26] = system: Danio rerio embryo; test: EC10 Any effect; higher = less potent
Protocol: as §1

[27] = system: Danio rerio embryo; test: EC50 Yolk sac size_Increase
Protocol: as §1

[28] = system: Danio rerio embryo; test: EC20 Body length_Decrease; higher = less potent
Protocol: as §1

[29] = system: Danio rerio embryo; test: EC10 LMR dark; higher = less potent; settings: exposure time: 4 dpf
Protocol: as §1

CCCCC(O)(Cn1cncn1)c1ccc(Cl)cc1Cl (stereo unspecified) [Hexaconazole]
Settings	EC10 Any effect [µM]	EC10 Body length Decrease [µM]	EC10 Curvature Increase [µM]	EC10 Pericard size Increase [µM]	EC10 Yolk sac size Increase [µM]	EC20 Any effect [µM]	EC20 Body length Decrease [µM]	EC20 Curvature Increase [µM]	EC20 Pericard size Increase [µM]	EC20 Yolk sac size Increase [µM]	EC50 Any effect [µM]	EC50 Body length Decrease [µM]	EC50 Curvature Increase [µM]	EC50 Pericard size Increase [µM]	EC50 STC bell shape [µM]	EC50 Yolk sac size Increase [µM]	spontaneous tail coiling frequency
[1], exposure time: 2 dpf	–	–	–	12.8	–	–	–	–	–	–	–	–	–	–	–	–	–
[1], exposure time: 4 dpf	–	–	–	15.2	–	–	–	–	–	–	–	–	–	–	–	–	–
[2], 5 µM	–	–	–	–	–	–	–	–	–	–	–	–	–	–	–	–	10.3
[2], 9.9 µM	–	–	–	–	–	–	–	–	–	–	–	–	–	–	–	–	9.83
[2], 13.3 µM	–	–	–	–	–	–	–	–	–	–	–	–	–	–	–	–	9.46
[2], 19.9 µM	–	–	–	–	–	–	–	–	–	–	–	–	–	–	–	–	9.25
[2], 26.5 µM	–	–	–	–	–	–	–	–	–	–	–	–	–	–	–	–	1.62
[2], 53 µM	–	–	–	–	–	–	–	–	–	–	–	–	–	–	–	–	0
[2], 79.6 µM	–	–	–	–	–	–	–	–	–	–	–	–	–	–	–	–	0
[3], exposure time: 2 dpf	–	–	–	–	–	–	–	–	–	–	19.5	–	–	–	–	–	–
[3], exposure time: 4 dpf	–	–	–	–	–	–	–	–	–	–	10.8	–	–	–	–	–	–
[3], exposure time: 25 h	–	–	–	–	–	–	–	–	–	–	–	–	–	–	23.4	–	–
[9], exposure time: 2 dpf	–	–	–	–	–	–	–	–	17.9	–	–	–	–	–	–	–	–
[9], exposure time: 4 dpf	–	–	–	–	–	–	–	–	16.9	–	–	–	–	–	–	–	–
[12], exposure time: 2 dpf	–	–	–	–	–	–	–	–	–	–	–	33.4	–	–	–	–	–
[12], exposure time: 4 dpf	–	–	–	–	–	–	–	–	–	–	–	16.8	–	–	–	–	–
[13], exposure time: 2 dpf	–	–	–	–	–	15.7	–	–	–	–	–	–	–	–	–	–	–
[13], exposure time: 4 dpf	–	–	–	–	–	9.17	–	–	–	–	–	–	–	–	–	–	–
[17], exposure time: 2 dpf	–	–	17.5	–	–	–	–	–	–	–	–	–	–	–	–	–	–
[17], exposure time: 4 dpf	–	–	11.8	–	–	–	–	–	–	–	–	–	–	–	–	–	–
[18], exposure time: 2 dpf	–	–	–	–	45	–	–	–	–	–	–	–	–	–	–	–	–
[18], exposure time: 4 dpf	–	–	–	–	5.45	–	–	–	–	–	–	–	–	–	–	–	–
[19], exposure time: 2 dpf	–	19.2	–	–	–	–	–	–	–	–	–	–	–	–	–	–	–
[19], exposure time: 4 dpf	–	12.2	–	–	–	–	–	–	–	–	–	–	–	–	–	–	–
[21], exposure time: 2 dpf	–	–	–	–	–	–	–	–	–	–	–	–	–	31.5	–	–	–
[21], exposure time: 4 dpf	–	–	–	–	–	–	–	–	–	–	–	–	–	20.4	–	–	–
[22], exposure time: 2 dpf	–	–	–	–	–	–	–	–	–	–	–	–	21.2	–	–	–	–
[22], exposure time: 4 dpf	–	–	–	–	–	–	–	–	–	–	–	–	17.5	–	–	–	–
[23], exposure time: 2 dpf	–	–	–	–	–	–	–	–	–	47.2	–	–	–	–	–	–	–
[23], exposure time: 4 dpf	–	–	–	–	–	–	–	–	–	6.81	–	–	–	–	–	–	–
[25], exposure time: 2 dpf	–	–	–	–	–	–	–	18.8	–	–	–	–	–	–	–	–	–
[25], exposure time: 4 dpf	–	–	–	–	–	–	–	13.7	–	–	–	–	–	–	–	–	–
[26], exposure time: 2 dpf	13.8	–	–	–	–	–	–	–	–	–	–	–	–	–	–	–	–
[26], exposure time: 4 dpf	8.34	–	–	–	–	–	–	–	–	–	–	–	–	–	–	–	–
[27], exposure time: 2 dpf	–	–	–	–	–	–	–	–	–	–	–	–	–	–	–	51.2	–
[27], exposure time: 4 dpf	–	–	–	–	–	–	–	–	–	–	–	–	–	–	–	9.95	–
[28], exposure time: 2 dpf	–	–	–	–	–	–	23.5	–	–	–	–	–	–	–	–	–	–
[28], exposure time: 4 dpf	–	–	–	–	–	–	13.7	–	–	–	–	–	–	–	–	–	–

Settings	EC10 Bladder size Decrease [µM]	EC10 Eye-jaw distance Decrease [µM]	EC10 Head trunk angle Decrease [µM]	EC10 LMR dark [µM]	EC10 Otolith-eye distance Decrease [µM]	EC20 Bladder size Decrease [µM]	EC20 Eye-jaw distance Decrease [µM]	EC20 LMR dark [µM]	EC20 Otolith-eye distance Decrease [µM]	EC50 Bladder size Decrease [µM]	EC50 Eye-jaw distance Decrease [µM]	EC50 LMR dark [µM]	EC50 Otolith-eye distance Decrease [µM]
[4]	–	–	–	–	–	–	–	–	–	–	–	4.83	–
[5]	6.28	–	–	–	–	–	–	–	–	–	–	–	–
[6]	–	–	–	–	–	–	–	–	19.7	–	–	–	–
[7]	–	–	–	–	–	–	–	–	–	10.3	–	–	–
[8]	–	–	–	–	19.6	–	–	–	–	–	–	–	–
[10]	–	–	–	–	–	7.52	–	–	–	–	–	–	–
[11]	–	–	–	–	–	–	–	3.68	–	–	–	–	–
[14]	–	–	–	–	–	–	–	–	–	–	13.1	–	–
[15]	–	9.21	–	–	–	–	–	–	–	–	–	–	–
[16]	–	–	12.8	–	–	–	–	–	–	–	–	–	–
[20]	–	–	–	–	–	–	10.5	–	–	–	–	–	–
[24]	–	–	–	–	–	–	–	–	–	–	–	–	19.8
[29]	–	–	–	3.21	–	–	–	–	–	–	–	–	–
